{
  "source": "ChEMBL document CHEMBL6127107",
  "about": "“Oleanolic acid derivatives against drug-resistant bacteria and fungi by multi-targets to avoid drug resistance” (Eur J Med Chem, 2024)",
  "key": {"[1]": {"tested_on": "Staphylococcus aureus", "assay": "Antimicrobial activity against methicillin-resistant Staphylococcus aureus 003", "format": "functional"}, "[2]": {"tested_on": "Staphylococcus aureus", "assay": "Synergistic antibacterial activity against methicillin-resistant Staphylococcus aureus assessed as fractional inhibitory concentration index in presence of azithromycin", "format": "functional"}, "[3]": {"tested_on": "Staphylococcus aureus", "assay": "Synergistic antibacterial activity against methicillin-resistant Staphylococcus aureus assessed as fractional inhibitory concentration index in presence of vancomycin", "format": "functional"}, "[4]": {"tested_on": "Staphylococcus aureus", "assay": "Antibiofilm activity against methicillin-resistant Staphylococcus aureus assessed as decrease in biofilm density at 1 to 8 times of MIC incubated for 24 hrs by fluorescence microscopic analysis", "format": "functional, organism-based"}, "[5]": {"tested_on": "Staphylococcus aureus", "assay": "Antibiofilm activity against methicillin-resistant Staphylococcus aureus assessed as reduction in number of live cells at 8 times of MIC (reference value: 7.79 log10CFU/ml)", "format": "functional"}, "[6]": {"tested_on": "Mitochondrial membrane", "assay": "Induction of mitochondrial membrane depolarization in methicillin-resistant Staphylococcus aureus assessed as increase in fluorescence intensity at 1 to 8 times of MIC by DiSC3(5) staining based analysis", "format": "cell membranes"}, "[7]": {"tested_on": "Staphylococcus aureus", "assay": "Antibacterial activity against methicillin-resistant Staphylococcus aureus in presence of DNA", "format": "functional, organism-based"}, "[8]": {"tested_on": "DNA", "assay": "Binding affinity to […] methicillin-resistant Staphylococcus aureus DNA assessed as inhibition of DNA migration by electrophoretic analysis", "format": "nucleic-acid assay"}, "[9]": {"tested_on": "DNA", "assay": "Binding affinity to methicillin-resistant Staphylococcus aureus DNA assessed as decrease in fluorescence by PI staining based analysis", "format": "nucleic-acid assay"}, "[10]": {"tested_on": "Staphylococcus aureus", "assay": "Antibacterial activity against methicillin-resistant Staphylococcus aureus infected in cyclophosphamide-injected Kunming mouse model of skin wound infection assessed as reduction in bacterial load in skin at 1 mg/kg measured after 7 days", "format": "functional", "settings": "time 7 day"}, "[11]": {"tested_on": "Staphylococcus aureus", "assay": "Antibacterial activity against methicillin-resistant Staphylococcus aureus infected in cyclophosphamide-injected Kunming mouse model of skin wound infection assessed as reduction in bacterial load in skin at 4 mg/kg measured after 7 days", "format": "functional", "settings": "time 7 day"}, "[12]": {"tested_on": "Staphylococcus aureus", "assay": "Antibacterial activity against methicillin-resistant Staphylococcus aureus infected in cyclophosphamide-injected Kunming mouse model of skin wound infection assessed as increase in IL-10 level in skin at 1 to 4 mg/kg administered for 7 days and measured on day 8", "format": "functional, organism-based", "settings": "dose 1-4 mg/kg, time 8.0 day"}},
  "note": "Active and inactive are the calls of the source. The rule behind the calls is not given here.",
  "data": [
    {"compound": "CC(=O)O[C@H]1CC[C@]2(C)[C@H]3CC=C4[C@@H]5CC(C)(C)CC[C@]5(C(=O)NCCCNC(=N)N)CC[C@@]4(C)[C@]3(C)CC[C@H]2C1(C)C", "values": [
      {"measurement": "MIC", "setting": "[1]", "value": 1, "unit": "µg/mL"},
      {"measurement": "fractional inhibitory concentration index (FICI)", "setting": "[2]", "value": 0.188},
      {"measurement": "Activity", "setting": "[3]", "value": "Active"},
      {"measurement": "Activity", "setting": "[4]", "value": "Dose-Dependent Effect"},
      {"measurement": "Activity", "setting": "[5]", "value": 2.7, "unit": "log10CFU/ml"},
      {"measurement": "Activity", "setting": "[6]", "value": "Dose-Dependent Effect"},
      {"measurement": "Activity", "setting": "[7]", "value": "inactive"},
      {"measurement": "Activity", "setting": "[8]", "value": "Active"},
      {"measurement": "Activity", "setting": "[9]", "value": "Dose-Dependent Effect"},
      {"measurement": "Activity", "setting": "[10]", "value": 0.97, "unit": "log10CFU/mg"},
      {"measurement": "Activity", "setting": "[11]", "value": 1.94, "unit": "log10CFU/mg"},
      {"measurement": "Activity", "setting": "[12]", "value": "Active"}
    ]}
  ]
}
